From patent US5238930A, “Alkenoic acid compounds for mechanism-based inactivation of dehydropeptidase activity” (Board of Governors of Wayne State University, priority 1992, dated 1993)
Entries after “also recorded” stand apart in the source; their conditions may differ.

Assays:
Assay in all cases: Kinetic analysis of interaction (turnover and inactivation) with porcine renal dipeptidase (dehydropeptidase I)
Format in all cases: biochemical
[1] = target: T1, porcine dehydropeptidase I (Sus scrofa, UniProt P22412); settings: for kinact: read-out: kinact (first-order rate constant for inactivation) (converted); for Ki: renal dipeptidase assay with glycinyldehydrophenylalanine as substrate, read-out: Ki (reversible inhibitor constant for the formation of the EI complex)
T1 construct: Renal dipeptidase from porcine kidney was purified by a slight modification of the literature report; from tissue; host or cells: porcine kidney
T1 sequence (P22412 17-409): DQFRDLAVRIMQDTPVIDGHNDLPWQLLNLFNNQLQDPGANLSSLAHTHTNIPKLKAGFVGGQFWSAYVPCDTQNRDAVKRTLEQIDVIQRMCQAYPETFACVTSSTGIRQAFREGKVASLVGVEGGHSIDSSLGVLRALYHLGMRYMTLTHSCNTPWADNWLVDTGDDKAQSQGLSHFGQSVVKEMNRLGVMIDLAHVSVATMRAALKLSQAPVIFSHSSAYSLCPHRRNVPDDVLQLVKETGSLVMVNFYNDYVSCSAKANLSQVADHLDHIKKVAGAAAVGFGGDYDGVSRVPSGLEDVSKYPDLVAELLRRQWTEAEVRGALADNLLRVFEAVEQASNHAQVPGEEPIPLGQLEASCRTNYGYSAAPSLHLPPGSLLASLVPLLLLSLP
Description: (§1) Km is the Michaelis […] for the turnover, and Ki is the reversible inhibitor constant for the formation of the EI complex. The parameters Kcat and Kinact are first-order rate constant for enzymic turnover and inactivation, respectively. The partition ratio is defined as kcat divided by kinact (i.e., kcat/ kinact).
(§2) Renal dipeptidase from porcine kidney was purified by a slight modification of the literature report (Biochem. J. 257, 361 (1989)). The spectrophotometric assay of renal dipeptidase is carried out according to the method of Campbell et al. (Methods Enzymol. 19, 722 (1970)), using glycinyldehydrophenylalanine as substrate. The substrate was synthesized according to the literature report (Synthesis Commun., 234 (1982)).
(§3) The relevant kinetic parameters for interactions of I and III with porcine dehydropeptidase I are given below.

[2] = substrate: C=C(CC(=O)CC#N)C(=O)O; settings: other: turnover of compound by porcine dehydropeptidase I
Description: as §1, §2, §3

[3] = substrate: C=C(NC(=O)CC#N)C(=O)O; settings: other: turnover of compound by porcine dehydropeptidase I
Description: as §1, §2, §3

| Molecule | inactivation of dehydropeptidase, overall result in words ([1]; conclusion from the kinetic table) | kcat/kinact (partition ratio) ([1]; porcine dehydropeptidase I, kcat divided by kinact) | kinact ([1]; porcine dehydropeptidase I) | Ki ([1]; porcine dehydropeptidase I) | Km [2] | Km [3] |
| --- | --- | --- | --- | --- | --- | --- |
| C=C(CC(=O)CC#N)C(=O)O [I, 2-Methnylene-5-Cyano-4-Oxopentanoic Acid] | very effective inactivators; also recorded: somewhat better than the ketonic compound (I) | 217 ± 37 | 0.00252 s⁻¹ | 38 ± 1 µM |  |  |
| C=C(NC(=O)CC#N)C(=O)O [III, 2-Cyanoacetamidoacrylic Acid] |  |  | 0.00462 s⁻¹ | 18 ± 6 µM |  |  |
| porcine dehydropeptidase I (Sus scrofa) (protein, Renal dipeptidase from porcine kidney was purified by a slight modification of the literature report; from tissue; host or cells: porcine kidney) DQFRDLAVRIMQDTPVIDGHNDLPWQLLNLFNNQLQDPGANLSSLAHTHTNIPKLKAGFVGGQFWSAYVPCDTQNRDAVKRTLEQIDVIQRMCQAYPETFACVTSSTGIRQAFREGKVASLVGVEGGHSIDSSLGVLRALYHLGMRYMTLTHSCNTPWADNWLVDTGDDKAQSQGLSHFGQSVVKEMNRLGVMIDLAHVSVATMRAALKLSQAPVIFSHSSAYSLCPHRRNVPDDVLQLVKETGSLVMVNFYNDYVSCSAKANLSQVADHLDHIKKVAGAAAVGFGGDYDGVSRVPSGLEDVSKYPDLVAELLRRQWTEAEVRGALADNLLRVFEAVEQASNHAQVPGEEPIPLGQLEASCRTNYGYSAAPSLHLPPGSLLASLVPLLLLSLP |  |  |  |  | 10.3 mM | 416 µM |
